Measurements published in patent US6750239B2, “Pyrazole-derived kinase inhibitors and uses thereof” (Vertex Pharmaceuticals Incorporated, priority 2001, dated 2004).
Where two headings read alike, the source gives them in different places.

Columns and labels:
activated ERK2 = activated ERK2 (Homo sapiens, UniProt P28482); experiment: ERK2 inhibition spectrophotometric coupled-enzyme assay; format: biochemical
Method: Compounds are assayed for the inhibition of ERK2 by a spectrophotometric coupled-enzyme assay (Fox et al (1998) Protein Sci 7, 2249). In this assay, a fixed concentration of activated ERK2 (10 nM) is incubated with various concentrations of the compound in DMSO (2.5%) for 10 min. at 30° C. in 0.1 M HEPES buffer, pH 7.5, containing 10 mM MgCl2, 2.5 mM phosphoenolpyruvate, 200 μM NADH, 150 μg/mL pyruvate kinase, 50 μg/mL lactate dehydrogenase, and 200 μM erktide peptide. The reaction is initiated by the addition of 65 μM ATP. The rate of decrease of absorbance at 340 nm is monitored, which indicates the extent of uninhibited enzyme present in the assay. The IC50 is evaluated from the rate data as a function of inhibitor concentration.
The compound numbers correspond to the compound numbers in Tables 1-3.

[1] = test system: Colon cancer cells (HT-29 cell line); experiment: ERK inhibition cell proliferation assay (3H-thymidine uptake); format: cell-based; conditions: Homo sapiens, HT-29 cells, 3 days incubation
Method: Compounds may be assayed for the inhibition of ERK2 by a cell proliferation assay. In this assay, a complete media is prepared by adding 10% fetal bovine serum and penicillin/streptomycin solution to RPMI 1640 medium (JRH Biosciences). Colon cancer cells (HT-29 cell line) are added to each of 84 wells of a 96 well plate at a seeding density of 10,000 cells/well/150 μL. The cells are allowed to attach to the plate by incubating at 37° C. for 2 hours. A solution of test compound is prepared in complete media by serial dilution to obtain the following concentrations: 20 μM, 6.7 μM, 2.2 μM, 0.74 μM, 0.25 μM, and 0.08 μM. The test compound solution (50 μL) is added to each of 72 cell-containing wells. To the 12 remaining cell-containing wells, only complete media (200 μL) is added to form a control group in order to measure maximal proliferation. To the remaining 12 empty wells, complete media is added to form a vehicle control group in order to measure background. The plates are incubated at 37° C. for 3 days. A stock solution of ^3H-thymidine (1 mCi/mL, New England Nuclear, Boston, Mass.) is diluted to […] in RPMI medium then 20 μL of this solution is added to each well. The plates are further incubated at 37° C. for 8 hours then harvested and analyzed for ^3H-thymidine uptake using a liquid scintillation counter.

[2] = activated ERK2 10 nM, 65 μM ATP, 30° C., pH 7.5, read-out: ERK2 Inhibitory Activity (Ki class)

activated ERK2, sequence (P28482 whole entry): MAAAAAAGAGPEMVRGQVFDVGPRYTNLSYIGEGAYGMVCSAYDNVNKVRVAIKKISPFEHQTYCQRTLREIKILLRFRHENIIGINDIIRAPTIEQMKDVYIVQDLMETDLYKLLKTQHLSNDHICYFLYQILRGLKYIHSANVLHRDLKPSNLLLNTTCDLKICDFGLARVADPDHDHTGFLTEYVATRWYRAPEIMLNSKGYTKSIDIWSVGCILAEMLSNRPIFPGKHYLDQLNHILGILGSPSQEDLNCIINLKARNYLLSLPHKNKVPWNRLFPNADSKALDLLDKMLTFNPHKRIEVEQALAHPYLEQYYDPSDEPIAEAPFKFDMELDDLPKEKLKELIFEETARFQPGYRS

Row | Ki (activated ERK2; [2]) | IC50 [1] | Molecule | Ki (activated ERK2)
1 | < 1000 nM | – | CCN(CC)CCNCc1ccc(-c2cn[nH]c2-c2c[nH]c(C(=O)N[C@H](CO)c3ccc(F)c(Cl)c3)c2)cc1Cl [II-82] | –
2 | < 1000 nM | – | CCN(CC)C(=O)CNCc1ccc(-c2cn[nH]c2-c2c[nH]c(C(=O)N[C@H](CO)c3ccc(F)c(Cl)c3)c2)cc1Cl [II-80] | –
3 | < 1000 nM | – | C[C@H](N)C(=O)NCc1ccc(-c2cn[nH]c2-c2c[nH]c(C(=O)N[C@H](CO)c3ccc(F)c(Cl)c3)c2)cc1Cl [II-69] | –
4 | < 1000 nM | – | CCC(=O)CN(CC(=O)CC)Cc1ccc(-c2cn[nH]c2-c2c[nH]c(C(=O)N[C@H](CO)c3ccc(F)c(Cl)c3)c2)cc1Cl [II-73] | –
5 | < 1000 nM | – | CCOC(=O)CN(CC(=O)OCC)Cc1ccc(-c2cn[nH]c2-c2c[nH]c(C(=O)N[C@H](CO)c3ccc(F)c(Cl)c3)c2)cc1Cl [II-84] | –
6 | < 1000 nM | – | CCOC(=O)CC(C)NCc1ccc(-c2cn[nH]c2-c2c[nH]c(C(=O)N[C@H](CO)c3ccc(F)c(Cl)c3)c2)cc1Cl (stereo partly drawn) [II-72] | –
7 | < 1000 nM | – | NCCNCc1ccc(-c2cn[nH]c2-c2c[nH]c(C(=O)N[C@H](CO)c3ccc(F)c(Cl)c3)c2)cc1Cl [II-68] | –
8 | < 1000 nM | – | CN[C@@H](CO)C(=O)NCc1ccc(-c2cn[nH]c2-c2c[nH]c(C(=O)N[C@H](CO)c3ccc(F)c(Cl)c3)c2)cc1Cl [II-67] | –
9 | < 1000 nM | – | NC(=O)CNCc1ccc(-c2cn[nH]c2-c2c[nH]c(C(=O)N[C@H](CO)c3ccc(F)c(Cl)c3)c2)cc1Cl [II-76] | –
10 | < 1000 nM | – | N[C@@H](CO)C(=O)NCc1ccc(-c2cn[nH]c2-c2c[nH]c(C(=O)N[C@H](CO)c3ccc(F)c(Cl)c3)c2)cc1Cl [II-75] | –
11 | < 1000 nM | – | NC(=O)CN(CC(N)=O)Cc1ccc(-c2cn[nH]c2-c2c[nH]c(C(=O)N[C@H](CO)c3ccc(F)c(Cl)c3)c2)cc1Cl [II-74] | –
12 | < 1000 nM | – | CCOC(=O)CN(C)Cc1ccc(-c2cn[nH]c2-c2c[nH]c(C(=O)N[C@H](CO)c3ccc(F)c(Cl)c3)c2)cc1Cl [II-83] | –
13 | < 1000 nM | – | O=C(O)CNCc1ccc(-c2cn[nH]c2-c2c[nH]c(C(=O)N[C@H](CO)c3ccc(F)c(Cl)c3)c2)cc1Cl [II-81] | –
14 | < 1000 nM | – | CN(C)CCNCc1ccc(-c2cn[nH]c2-c2c[nH]c(C(=O)N[C@H](CO)c3ccc(F)c(Cl)c3)c2)cc1Cl [II-79] | –
15 | < 1000 nM | – | CCNC(=O)CNCc1ccc(-c2cn[nH]c2-c2c[nH]c(C(=O)N[C@H](CO)c3ccc(F)c(Cl)c3)c2)cc1Cl [II-71] | –
16 | < 1000 nM | – | CCN(CC)C(=O)CN(CC(=O)N(CC)CC)Cc1ccc(-c2cn[nH]c2-c2c[nH]c(C(=O)N[C@H](CO)c3ccc(F)c(Cl)c3)c2)cc1Cl [II-86] | –
17 | < 1000 nM | – | CC(C)NCc1ccc(-c2cn[nH]c2-c2c[nH]c(C(=O)N[C@H](CO)c3ccc(F)c(Cl)c3)c2)cc1Cl [II-70] | –

The next lines start with the molecule.

Row | Molecule | Ki (activated ERK2; [2]) | IC50 [1] | Ki (activated ERK2)
18 | CCNCc1ccc(-c2c[nH]nc2-c2c[nH]c(C(=O)N[C@H](CO)c3ccc(F)c(Cl)c3)c2)cc1Cl [II-26, 4-[4-(3-Chloro-4-ethylaminomethyl-phenyl)-1H-pyrazol-3-yl]-1H-pyrrole-2-carboxylic acid [1-(3-chloro-4-fluoro-phenyl)-2-hydroxy-ethyl]-amide] | < 1000 nM | < 10000 nM | –
19 | CCCCNCc1ccc(-c2cn[nH]c2-c2c[nH]c(C(=O)NC(CO)c3ccc(F)c(Cl)c3)c2)cc1Cl (stereo not drawn) [II-7] | < 1000 nM | < 10000 nM | –
20 | O=C(CCO)NCc1ccc(-c2cn[nH]c2-c2c[nH]c(C(=O)N[C@H](CO)c3ccccc3)c2)cc1Cl [II-4] | < 1000 nM | – | –
21 | CC(NCc1ccc(-c2cn[nH]c2-c2c[nH]c(C(=O)N[C@H](CO)c3ccc(F)c(Cl)c3)c2)cc1C(F)(F)F)C(=O)N(C)C (stereo partly drawn) [II-60] | < 1000 nM | – | –
22 | CC(CC(=O)N(C)C)NCc1ccc(-c2cn[nH]c2-c2c[nH]c(C(=O)N[C@H](CO)c3ccc(F)c(Cl)c3)c2)cc1Cl (stereo partly drawn) [II-52] | < 1000 nM | – | –
23 | CC(=O)NC(CC[S+](C)[O-])C(=O)NCc1ccc(-c2cn[nH]c2-c2c[nH]c(C(=O)NC(CO)c3ccc(F)c(Cl)c3)c2)cc1Cl (stereo not drawn) [II-16] | < 1000 nM | – | –
24 | N[C@@H](CO)C(=O)NCc1ccc(-c2cn[nH]c2-c2c[nH]c(C(=O)NC(CO)c3ccc(F)c(Cl)c3)c2)cc1Cl (stereo partly drawn) [II-15] | < 1000 nM | – | –
25 | CC(O)CNCc1ccc(-c2cn[nH]c2-c2c[nH]c(C(=O)N[C@H](CO)c3ccc(F)c(Cl)c3)c2)cc1Cl (stereo partly drawn) [II-31] | < 1000 nM | – | –
26 | CC(C)N(C)Cc1ccc(-c2cn[nH]c2-c2c[nH]c(C(=O)N[C@H](CO)c3ccc(F)c(Cl)c3)c2)cc1Cl [II-54] | < 1000 nM | – | –
27 | 4-{4-[3-Chloro-4-(methanesulfonylamino-methyl)-phenyl]-1H-pyrazol-3-yl}-1H-pyrrole-2-carboxylic acid [1-(3-chloro-4-fluoro-phenyl)-2-hydroxy-ethyl]-amide [II-2] | < 1000 nM | – | –
28 | CCN(CC)Cc1ccc(-c2cn[nH]c2-c2c[nH]c(C(=O)N[C@H](CO)c3ccc(F)c(Cl)c3)c2)cc1Cl [II-34] | < 1000 nM | – | –
29 | CN(C)CC(=O)NCc1ccc(-c2cn[nH]c2-c2c[nH]c(C(=O)NC(CO)c3ccc(F)c(Cl)c3)c2)cc1Cl (stereo not drawn) [II-13] | < 1000 nM | – | –
30 | CCCNCc1ccc(-c2cn[nH]c2-c2c[nH]c(C(=O)N[C@H](CO)c3ccc(F)c(Cl)c3)c2)cc1Cl [II-27] | < 1000 nM | – | –
31 | CC(=O)NC(CCO)C(=O)NCc1ccc(-c2cn[nH]c2-c2c[nH]c(C(=O)NC(CO)c3ccc(F)c(Cl)c3)c2)cc1Cl (stereo not drawn) [II-5] | < 1000 nM | – | –
32 | N[C@H](CO)C(=O)NCc1ccc(-c2cn[nH]c2-c2c[nH]c(C(=O)N[C@H](CO)c3ccc(F)c(Cl)c3)c2)cc1Cl [II-56] | < 1000 nM | – | –
33 | CC(C)(C)OC(=O)N[C@H](CO)C(=O)NCc1ccc(-c2cn[nH]c2-c2c[nH]c(C(=O)NC(CO)c3ccc(F)c(Cl)c3)c2)cc1Cl (stereo partly drawn) [II-17] | < 1000 nM | – | –
34 | CCCN(CCC)Cc1ccc(-c2cn[nH]c2-c2c[nH]c(C(=O)N[C@H](CO)c3ccc(F)c(Cl)c3)c2)cc1Cl [II-28] | < 1000 nM | – | –
35 | CCCCN(CCCC)Cc1ccc(-c2cn[nH]c2-c2c[nH]c(C(=O)N[C@H](CO)c3ccc(F)c(Cl)c3)c2)cc1Cl [II-23] | < 1000 nM | – | –
36 | CCC(=O)CNCc1ccc(-c2cn[nH]c2-c2c[nH]c(C(=O)N[C@H](CO)c3ccc(F)c(Cl)c3)c2)cc1Cl [II-53] | < 1000 nM | – | –
37 | CC(C)NCc1ccc(-c2cn[nH]c2-c2c[nH]c(C(=O)N[C@H](CO)c3ccc(F)c(Cl)c3)c2)cc1C(F)(F)F [II-57] | < 1000 nM | – | –
38 | CC(O)CCNCc1ccc(-c2cn[nH]c2-c2c[nH]c(C(=O)N[C@H](CO)c3ccc(F)c(Cl)c3)c2)cc1Cl (stereo partly drawn) [II-32] | < 1000 nM | – | –
39 | O=C(N[C@H](CO)c1ccc(F)c(Cl)c1)c1cc(-c2[nH]ncc2-c2ccc(CNCCCl)c(Cl)c2)c[nH]1 [II-35] | – | – | < 1000 nM
40 | CC(=O)N[C@H](C(=O)NCc1ccc(-c2cn[nH]c2-c2c[nH]c(C(=O)N[C@H](CO)c3ccc(F)c(Cl)c3)c2)cc1Cl)C(C)C [II-21] | < 1000 nM | < 10000 nM | –
41 | CC(=O)NC(CO)C(=O)NCc1ccc(-c2c[nH]nc2-c2c[nH]c(C(=O)N[C@H](CO)c3ccc(F)c(Cl)c3)c2)cc1Cl (stereo in doubt) [II-20, 4-(4-{4-[(2-Acetylamino-3-hydroxy-propionylamino)-methyl]-3-chloro-phenyl}-1H-pyrazol-3-yl)-1H-pyrrole-2-carboxylic acid [1-(3-chloro-4-fluoro-phenyl)-2-hydroxy-ethyl]-amide] | < 1000 nM | – | –
42 | CC(=O)N[C@@H](CS)C(=O)NCc1ccc(-c2cn[nH]c2-c2c[nH]c(C(=O)NC(CO)c3ccc(F)c(Cl)c3)c2)cc1Cl (stereo partly drawn) [II-12] | < 1000 nM | – | –
43 | CC(=O)NC(CO)C(=O)NCc1ccc(-c2cn[nH]c2-c2c[nH]c(C(=O)N[C@H](CO)c3cccc(Cl)c3)c2)cc1Cl (stereo partly drawn) [II-19] | < 1000 nM | – | –
44 | CC(C)(C)OC(=O)NCCNCc1ccc(-c2cn[nH]c2-c2c[nH]c(C(=O)N[C@H](CO)c3ccc(F)c(Cl)c3)c2)cc1Cl [II-37] | < 1000 nM | – | –
45 | CCOC(=O)C(C)N(C)Cc1ccc(-c2cn[nH]c2-c2c[nH]c(C(=O)N[C@H](CO)c3ccc(F)c(Cl)c3)c2)cc1C(F)(F)F (stereo partly drawn) [II-64] | < 1000 nM | – | –
